Molecules are shown by their SMILES. Square brackets hold non-standard residues; d marks the D form. Peptide text beside a SMILES is read from it.

The test system of experiment [1] is KOR. The following applies: after a single injection, result in words; ref [1a]; cited from earlier work.
Experiment [2] deals with KOR (Mus musculus, UniProt P33534). Nature of the experiment: competition radioligand-binding assay, KOR, [^3H]U69,593, mouse brain membranes.

On to `CC(C)[C@@H](CN1CC[C@@](C)(c2cccc(O)c2)[C@@H](C)C1)NC(=O)[C@H]1Cc2ccc(O)cc2CN1` [JDTic, (3R)-7-hydroxy-N-[(1S)-1-[[(3R,4R)-4-(3-hydroxyphenyl)-3,4-dimethyl-1-piperidinyl]methyl]-2-methylpropyl]-1,2,3,4-tetrahydro-3-isoquinolinecarboxamide], for which the “duration of antagonist activity” value in experiment [1] is reported as “lasting for weeks to more than a month”.
`O=C1N[C@@H](Cc2ccccc2)C(=O)N2CCC[C@@H]2C(=O)N[C@@H](Cc2ccccc2)C(=O)N[C@H]1Cc1c[nH]c2ccccc12` [L-Trp isomer, cyclo[Phe-D-Pro-Phe-Trp]] (cyclo(FWF[dP])) had a Ki in experiment [2] of 21.2 ± 5.6 nM.
Regarding `NC(N)=Nc1ccc2[nH]c3c(c2c1)C[C@@]1(O)[C@H]2Cc4ccc(O)c5c4[C@@]1(CCN2CC1CC1)[C@H]3O5` [GNTI, 5′-guanidinonaltrindole], the “duration of antagonist activity” value in experiment [1] is listed as “lasting for weeks to more than a month”.
Consider `Oc1ccc2c3c1O[C@H]1c4[nH]c5c(c4C[C@@]4(O)[C@@H](C2)N(CC2CC2)CC[C@]314)C[C@@]1(O)[C@H]2Cc3ccc(O)c4c3[C@@]1(CCN2CC1CC1)[C@H]5O4` [norBNI, norbinaltorphimine], for which, in experiment [1], the “duration of antagonist activity” value is recorded as “lasting for weeks to more than a month”.

The values are drawn from publication PMC3411353 (Tetrahedron letters, 2010).
